Key:
[1] = molecular target: T1, SXR (Homo sapiens, UniProt O75469); details: from Ekins & Erickson, Drug Metabolism and Disposition, 30, 96-99 and references therein; cited from earlier work
T1 sequence (O75469 1-434): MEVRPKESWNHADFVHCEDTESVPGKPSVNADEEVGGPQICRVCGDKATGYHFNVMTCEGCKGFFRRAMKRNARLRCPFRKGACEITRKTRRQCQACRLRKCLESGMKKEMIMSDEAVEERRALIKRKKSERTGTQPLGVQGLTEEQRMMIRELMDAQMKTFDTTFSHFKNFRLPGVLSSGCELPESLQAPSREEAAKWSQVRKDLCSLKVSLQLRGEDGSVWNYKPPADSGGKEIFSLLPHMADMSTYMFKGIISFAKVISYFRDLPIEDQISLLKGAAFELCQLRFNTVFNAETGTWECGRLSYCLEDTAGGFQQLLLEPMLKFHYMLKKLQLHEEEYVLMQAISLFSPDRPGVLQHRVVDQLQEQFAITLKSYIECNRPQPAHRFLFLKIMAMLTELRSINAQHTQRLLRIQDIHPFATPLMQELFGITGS

[2] = molecular target: T1, SXR; assay: Microplate thermal shift assay (Thermofluor) of SXR with ligands, co-activator peptide SRC1-NR2 and co-repressor peptide NCoR-1; details: for ΔΔTm SRC1-NR2 / ΔTm ligand / ΔΔTm NcoR1-NR2: SXR 6 μM, ligand 50 μM; for ΔΔTm SRC1-NR2: co-activator peptide SRC1-NR2 100 μM; for ΔΔTm SRC1-NR2 / ΔΔTm NcoR1-NR2: change from the receptor-ligand ΔTm; for ΔTm ligand: average of four experiments; for ΔTm at 100 µM: read-out: ΔΔTm NcoR1-NR2; for Probability Agonist (statistical probability of agonist state): computed from affinities derived from ΔΔTm with co-regulator peptides (FIG. 3); for ΔΔTm NcoR1-NR2: co-repressor peptide NCoR-1 100 μM
Experimental: A 2 μL ligand solution at 2 times the final concentration was dispensed with a micropipette into a 384 well black wall Greiner plate. Then, 2 μL of the protein dye solution was dispensed on top of the ligand solution in the 384 well plate. The plates were spun to ensure mixing of the protein-dye and ligand solutions followed by layering of 1 μL of silicone oil to prevent evaporation during heating of the samples. […] The values for the co-regulators represent a change in Tm stabilization from the receptor-ligand ΔTm values.

[3] = molecular target: ER-β (Homo sapiens, UniProt Q92731); assay: Microplate thermal shift assay (Thermofluor) of ER-β with ligands and co-regulators; assay type: binding; details: for Observed ΔTm Stabilization, SRC3-NR2: co-activator peptide SRC3-NR2 100 μM; for Observed ΔTm Stabilization, NR2: change in Tm stabilization from the receptor-ligand ΔTm; for Observed ΔTm Stabilization, NR2 / Observed ΔTm Stabilization, SRC-3: head shifted, see doubts; for Observed ΔTm Stabilization, SRC-3: average of four experiments
Chain of ER-β (Homo sapiens, UniProt Q92731) (Q92731 whole entry, species assumed): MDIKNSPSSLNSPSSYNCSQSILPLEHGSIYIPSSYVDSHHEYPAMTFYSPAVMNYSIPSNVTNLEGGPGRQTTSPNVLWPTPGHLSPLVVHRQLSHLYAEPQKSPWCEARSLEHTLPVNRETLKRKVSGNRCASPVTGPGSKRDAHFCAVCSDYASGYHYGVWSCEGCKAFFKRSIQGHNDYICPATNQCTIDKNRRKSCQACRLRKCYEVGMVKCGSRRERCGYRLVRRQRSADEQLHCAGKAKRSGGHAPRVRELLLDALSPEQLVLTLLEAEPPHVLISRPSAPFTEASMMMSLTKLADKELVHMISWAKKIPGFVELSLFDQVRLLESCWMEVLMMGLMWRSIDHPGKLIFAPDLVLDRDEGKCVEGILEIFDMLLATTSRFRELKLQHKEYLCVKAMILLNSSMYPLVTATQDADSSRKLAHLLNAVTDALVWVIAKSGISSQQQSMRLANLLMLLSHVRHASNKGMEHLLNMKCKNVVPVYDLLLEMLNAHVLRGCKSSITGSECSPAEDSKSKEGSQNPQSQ
Experimental: (§1) A 2 μM ligand solution at 2 times the final concentration was dispensed with a micropipette into a 384 well black wall Greiner plate. Then, 2 μL of the protein dye solution was dispensed on top of the ligand solution in the 384 well plate. The plates were spun to ensure mixing of the protein-dye and ligand solutions followed by layering of 1 μL of silicone oil to prevent evaporation during heating of the samples.

[4] = molecular target: T2, ER-α (Homo sapiens, UniProt P03372); assay: Microplate thermal shift assay (Thermofluor) of ER-α with ligands and co-regulators; assay type: binding
T2 sequence (P03372 1-595): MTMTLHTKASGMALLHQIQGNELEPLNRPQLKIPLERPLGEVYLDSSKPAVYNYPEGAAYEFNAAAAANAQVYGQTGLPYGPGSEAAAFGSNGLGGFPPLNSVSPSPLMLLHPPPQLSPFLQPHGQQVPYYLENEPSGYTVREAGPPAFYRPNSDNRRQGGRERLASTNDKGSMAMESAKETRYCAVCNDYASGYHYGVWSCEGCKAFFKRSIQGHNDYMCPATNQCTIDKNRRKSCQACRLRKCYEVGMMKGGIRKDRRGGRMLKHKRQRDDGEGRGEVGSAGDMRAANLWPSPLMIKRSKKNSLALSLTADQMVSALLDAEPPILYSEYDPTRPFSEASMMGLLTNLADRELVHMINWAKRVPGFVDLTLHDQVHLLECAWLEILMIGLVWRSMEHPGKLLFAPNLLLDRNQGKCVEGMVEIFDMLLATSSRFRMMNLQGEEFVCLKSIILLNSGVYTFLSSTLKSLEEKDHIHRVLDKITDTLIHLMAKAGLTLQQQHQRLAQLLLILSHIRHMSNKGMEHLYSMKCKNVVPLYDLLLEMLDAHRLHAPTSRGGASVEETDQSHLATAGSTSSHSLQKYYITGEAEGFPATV
Experimental: as §1

[5] = molecular target: T3, ER-α (UniProt P03372 297-554, limits assumed); assay: Thermofluor thermal shift; ER-α 8 µM with 2-methoxy-E2 20 µM; peptide 100 µM
T3 construct: also called estrogen receptor alpha
T3 sequence (looked up): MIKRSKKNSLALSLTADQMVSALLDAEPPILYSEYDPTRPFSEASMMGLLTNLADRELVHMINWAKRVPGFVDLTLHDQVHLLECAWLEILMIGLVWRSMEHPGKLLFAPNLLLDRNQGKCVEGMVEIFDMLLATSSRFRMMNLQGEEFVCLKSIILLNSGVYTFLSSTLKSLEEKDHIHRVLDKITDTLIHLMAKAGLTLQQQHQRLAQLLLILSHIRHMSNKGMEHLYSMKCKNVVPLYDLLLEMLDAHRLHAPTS
Experimental: as §1

[6] = molecular target: T4, ER-β (UniProt Q92731 256-505, limits assumed); assay: Thermofluor thermal shift; ER-β 8 µM with estrone 20 µM; peptide 100 µM
T4 construct: also called estrogen receptor beta
T4 sequence (Q92731 256-505 limits assumed): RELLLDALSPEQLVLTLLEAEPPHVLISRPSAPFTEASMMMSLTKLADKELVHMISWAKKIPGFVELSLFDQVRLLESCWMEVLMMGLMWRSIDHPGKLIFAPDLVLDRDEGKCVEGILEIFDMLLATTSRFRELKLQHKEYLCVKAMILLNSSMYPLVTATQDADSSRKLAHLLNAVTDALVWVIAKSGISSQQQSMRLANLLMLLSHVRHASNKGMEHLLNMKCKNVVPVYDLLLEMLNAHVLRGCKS
Experimental: as §1

[7] = molecular target: T4, ER-β; assay: Thermofluor thermal shift; ER-β 8 µM with 17-α-ethylene-E2 20 µM; peptide 100 µM
Experimental: as §1

[8] = molecular target: T4, ER-β; assay: Thermofluor thermal shift; ER-β 8 µM, no ligand; peptide 100 µM
Experimental: as §1

[9] = molecular target: T3, ER-α; assay: Thermofluor thermal shift; ER-α 8 µM with 17-α-ethylene-E2 20 µM; peptide 100 µM
Experimental: as §1

[10] = molecular target: T4, ER-β; assay: Thermofluor thermal shift; ER-β 8 µM with 2-methoxy-E2 20 µM; peptide 100 µM
Experimental: as §1

[11] = molecular target: T3, ER-α; assay: Thermofluor thermal shift; ER-α 8 µM with estrone 20 µM; peptide 100 µM
Experimental: as §1

[12] = molecular target: T3, ER-α; assay: Thermofluor thermal shift; ER-α 8 µM, no ligand; peptide 100 µM
Experimental: as §1

[13] = molecular target: T3, ER-α; assay: Thermofluor thermal shift; ER-α 8 µM with estradiol 20 µM; peptide 100 µM
Experimental: as §1

[14] = molecular target: T3, ER-α; assay: Thermofluor thermal shift; ER-α 8 µM with ICI-182780 20 µM; peptide 100 µM
Experimental: as §1

[15] = molecular target: T4, ER-β; assay: Thermofluor thermal shift; ER-β 8 µM with 4-OH-tamoxifen 20 µM; peptide 100 µM
Experimental: as §1

[16] = molecular target: T3, ER-α; assay: Thermofluor thermal shift; ER-α 8 µM with 4-OH-tamoxifen 20 µM; peptide 100 µM
Experimental: as §1

[17] = molecular target: T4, ER-β; assay: Thermofluor thermal shift; ER-β 8 µM with estradiol 20 µM; peptide 100 µM
Experimental: as §1

[18] = molecular target: T3, ER-α; assay: Thermofluor thermal shift; ER-α 8 µM with tamoxifen 20 µM; peptide 100 µM
Experimental: as §1

[19] = molecular target: T4, ER-β; assay: Thermofluor thermal shift; ER-β 8 µM with ICI-182780 20 µM; peptide 100 µM
Experimental: as §1

[20] = molecular target: T4, ER-β; assay: Thermofluor thermal shift; ER-β 8 µM with tamoxifen 20 µM; peptide 100 µM
Experimental: as §1

[21] = ER-β 8 μM, ligand 20 μM, change from the receptor-ligand ΔTm

CC(=O)O[C@H]1C(=O)[C@@]2(C)[C@H]([C@H](OC(=O)c3ccccc3)[C@]3(O)C[C@H](OC(=O)[C@H](O)[C@@H](NC(=O)c4ccccc4)c4ccccc4)C(C)=C1C3(C)C)[C@]1(OC(C)=O)CO[C@@H]1C[C@@H]2O [Taxol]
EC50 [1]: 5 µM | Kd [2]: 23 µM | ΔΔTm SRC1-NR2 [2]: 2.5 | ΔTm ligand [2]: 1.3 °C | ΔTm at 100 µM [2]: 4.7 °C

CC(=O)[C@@]1(O)CC[C@H]2[C@@H]3CCC4=CC(=O)CC[C@]4(C)[C@H]3CC[C@@]21C [17-α-hydroxyprogesterone]
Probability Agonist (statistical probability of agonist state) [2]: 0.47

C[C@]12CC[C@@H]3c4ccc(O)cc4CC[C@H]3[C@@H]1CC[C@@H]2O [Estradiol]
Kd [2]: 8.7 µM | ΔΔTm SRC1-NR2 [2]: 3.9 | Probability Agonist (statistical probability of agonist state) [2]: 0.76 | ΔTm at 100 µM [2]: 2.3 °C | Observed ΔTm Stabilization, SRC3-NR2 [3, 21]: 3.5 | Observed ΔTm Stabilization, NR2 ([3]; ER-β 8 μM, ligand 20 μM): 3.4

C[C@]12CC[C@@H](O)C[C@@H]1CC[C@@H]1[C@@H]2CC[C@]2(C)C(=O)CC[C@@H]12 [Androsterone]
ΔΔTm SRC1-NR2 [2]: 3.5 | ΔTm ligand [2]: 3.3 °C | Probability Agonist (statistical probability of agonist state) [2]: 0.45 | ΔTm at 100 µM [2]: 3.8 °C

C[C@H](CCC(=O)O)[C@H]1CC[C@H]2[C@@H]3CC[C@@H]4C[C@H](O)CC[C@]4(C)[C@H]3CC[C@]12C [Lithocholic acid]
ΔΔTm SRC1-NR2 [2]: 2.9 | ΔTm ligand [2]: 2.4 °C | ΔTm at 100 µM [2]: 1.4 °C

COc1cc2c(cc1O)CC[C@@H]1[C@@H]2CC[C@]2(C)[C@@H](O)CC[C@@H]12 [Ligand 2-methoxy-E2, 2-methoxy-E2]
Observed ΔTm Stabilization, SRC3-NR2 [3, 21]: 4.4 | Observed ΔTm Stabilization, NCoR1-NR1 ([3]; ER-β 8 μM, ligand 20 μM, co-repressor peptide NCoR-1 100 μM, change from the receptor-ligand ΔTm): −0.7 | Observed ΔTm Stabilization, SRC-3 ([3]; ER-β 8 μM, ligand 20 μM): 2.9 | Observed ΔTm Stabilization, NR2 ([3]; ER-β 8 μM, ligand 20 μM): 4.4 | Observed ΔTm Stabilization, SRC-3 ([4]; ER-α 8 μM, ligand 20 μM, average of four experiments, head shifted, see doubts): 3.5

CC(=O)[C@H]1CC[C@H]2[C@@H]3CCC4=CC(=O)CC[C@]4(C)[C@H]3[C@H](O)C[C@]12C [11-α-hydroxy-progesterone]
ΔΔTm SRC1-NR2 [2]: 4.6 | ΔΔTm NcoR1-NR2 [2]: 1.0 | ΔTm ligand [2]: 6.3 °C | Probability Agonist (statistical probability of agonist state) [2]: 0.96

C[C@]12CCC(=O)C=C1CC[C@@H]1[C@@H]2C(=O)C[C@@]2(C)[C@H]1CC[C@]2(O)C(=O)CO [Cortisone]
ΔΔTm NcoR1-NR2 [2]: 3.6 | Probability Agonist (statistical probability of agonist state) [2]: 0.37

CCOC(=O)C(C)(C)Oc1ccc(Cl)cc1 [Clofibrate]
Kd [2]: 23 µM | ΔΔTm SRC1-NR2 [2]: 3.3 | ΔTm ligand [2]: 1.3 °C | Probability Agonist (statistical probability of agonist state) [2]: 0.49 | ΔTm at 100 µM [2]: 3.4 °C

C[C@]12CCC(=O)C=C1CC[C@@H]1[C@@H]2[C@@H](O)C[C@@]2(C)[C@H]1CC[C@]2(O)C(=O)CO [Hydrocortisone]
Kd [2]: 17 µM | ΔΔTm SRC1-NR2 [2]: 3.3 | ΔTm ligand [2]: 1.6 °C | Probability Agonist (statistical probability of agonist state) [2]: 0.44 | ΔTm at 100 µM [2]: 3.7 °C

C[C@]12CC[C@@H]3c4ccc(O)cc4C[C@@H](CCCCCCCCC[S+]([O-])CCCC(F)(F)C(F)(F)F)[C@H]3[C@@H]1CC[C@@H]2O (stereo partly shown) [ICI-182780]
ΔTm at 100 µM ([3]; ER-β 8 μM, ligand 20 μM, co-repressor peptide NCoR-1 100 μM, change from the receptor-ligand ΔTm, read-out: Observed ΔTm Stabilization, NCoR1-NR1): 0.3 °C | Observed ΔTm Stabilization, SRC-3 ([3]; ER-β 8 μM, ligand 20 μM): 16.7 | Observed ΔTm Stabilization, NR2 ([3]; ER-β 8 μM, ligand 20 μM): 0.4 | Recruitment of co-activators (additional stabilization in the presence of co-activator protein/peptide) ([3]; result in words): no ability to recruit co-activators | Observed ΔTm Stabilization, SRC3-NR2 ([4]; ER-α 8 μM, ligand 20 μM, co-activator peptide SRC3-NR2 100 μM, change from the receptor-ligand ΔTm): 0.2 | ΔTm at 100 µM ([4]; ER-α 8 μM, ligand 20 μM, co-repressor peptide NCoR-1 100 μM, change from the receptor-ligand ΔTm, read-out: Observed ΔTm Stabilization, NCoR1-NR1): -0.6 °C | Observed ΔTm Stabilization, NR2 ([4]; ER-α 8 μM, ligand 20 μM, change in Tm stabilization from the receptor-ligand ΔTm, head shifted, see doubts): 0.2 | Recruitment of co-activators (additional stabilization in the presence of co-activator protein/peptide) ([4]; result in words): no ability to recruit co-activators

MHGSLLQEKHRILHKLLQNGNSP (peptide, UniProt Q9Y6Q9 673-695, looked up, Peptide fragment of SRC-3) [co-activator peptide SRC3-NR2]
change in Tm stabilization from the receptor-ligand ΔTm [5]: 4.3 | change in Tm stabilization from the receptor-ligand ΔTm [6]: 3.7 | change in Tm stabilization from the receptor-ligand ΔTm [7]: 2.6 | change in Tm stabilization from the receptor-ligand ΔTm [8]: 0.9 | change in Tm stabilization from the receptor-ligand ΔTm [9]: 3.9 | change in Tm stabilization from the receptor-ligand ΔTm [10]: 4.4 | change in Tm stabilization from the receptor-ligand ΔTm [11]: 2.3 | change in Tm stabilization from the receptor-ligand ΔTm [12]: 0.9 | change in Tm stabilization from the receptor-ligand ΔTm [13]: 4.3 | change in Tm stabilization from the receptor-ligand ΔTm [14]: 0.2 | change in Tm stabilization from the receptor-ligand ΔTm [15]: 0.8 | change in Tm stabilization from the receptor-ligand ΔTm [16]: 0.7 | change in Tm stabilization from the receptor-ligand ΔTm [17]: 3.5 | change in Tm stabilization from the receptor-ligand ΔTm [18]: 0 | change in Tm stabilization from the receptor-ligand ΔTm [19]: 0.6 | change in Tm stabilization from the receptor-ligand ΔTm [20]: 0.4
